Assay results from ChEMBL document CHEMBL5230094, “Structure-activity relationships of Wee1 inhibitors: A review” (Eur J Med Chem, 2020).

Assays:
[1] = biological target: T1, Serine/threonine-protein kinase Chk1 (Homo sapiens, UniProt O14757); assay: Inhibition of CHK1 (unknown origin)
T1 sequence (O14757 whole entry): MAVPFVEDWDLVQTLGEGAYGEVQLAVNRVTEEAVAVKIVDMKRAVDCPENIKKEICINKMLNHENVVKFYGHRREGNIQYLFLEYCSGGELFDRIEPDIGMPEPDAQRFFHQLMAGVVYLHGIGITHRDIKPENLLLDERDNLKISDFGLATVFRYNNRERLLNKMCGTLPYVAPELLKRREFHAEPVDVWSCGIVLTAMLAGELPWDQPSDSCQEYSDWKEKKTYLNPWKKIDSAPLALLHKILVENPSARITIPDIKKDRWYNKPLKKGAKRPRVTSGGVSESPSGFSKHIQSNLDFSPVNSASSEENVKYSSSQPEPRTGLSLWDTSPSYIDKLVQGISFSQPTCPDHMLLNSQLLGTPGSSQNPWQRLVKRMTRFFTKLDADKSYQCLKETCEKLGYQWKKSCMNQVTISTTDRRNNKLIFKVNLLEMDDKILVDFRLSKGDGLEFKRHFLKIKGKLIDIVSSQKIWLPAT

Wee1-like protein kinase [2] = biological target: T2, Wee1-like protein kinase (Homo sapiens, UniProt P30291); assay: Inhibition of recombinant Wee1 (unknown origin) incubated for 1 hr by TR-FRET assay
T2 sequence (P30291 whole entry): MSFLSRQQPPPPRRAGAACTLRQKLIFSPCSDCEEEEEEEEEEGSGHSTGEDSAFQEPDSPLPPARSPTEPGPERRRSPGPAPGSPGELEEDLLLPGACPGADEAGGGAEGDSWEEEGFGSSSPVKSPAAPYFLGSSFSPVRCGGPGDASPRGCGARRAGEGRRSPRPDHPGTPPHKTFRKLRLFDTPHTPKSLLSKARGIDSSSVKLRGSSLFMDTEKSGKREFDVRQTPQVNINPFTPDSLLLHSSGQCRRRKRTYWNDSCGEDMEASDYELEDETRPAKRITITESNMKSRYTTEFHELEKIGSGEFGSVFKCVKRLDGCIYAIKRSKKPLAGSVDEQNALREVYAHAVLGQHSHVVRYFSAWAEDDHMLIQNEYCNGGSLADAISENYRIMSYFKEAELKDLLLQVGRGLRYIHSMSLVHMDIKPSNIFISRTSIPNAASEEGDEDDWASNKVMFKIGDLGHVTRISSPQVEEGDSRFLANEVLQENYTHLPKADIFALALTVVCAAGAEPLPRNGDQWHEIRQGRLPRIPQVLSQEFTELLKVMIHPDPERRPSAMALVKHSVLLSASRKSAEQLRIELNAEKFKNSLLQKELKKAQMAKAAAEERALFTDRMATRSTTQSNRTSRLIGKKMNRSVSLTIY

[3] = biological target: Proto-oncogene tyrosine-protein kinase Src (Homo sapiens, UniProt P12931); assay: Inhibition of c-Src (unknown origin)
Proto-oncogene tyrosine-protein kinase Src, sequence (P12931 2-536 limits assumed): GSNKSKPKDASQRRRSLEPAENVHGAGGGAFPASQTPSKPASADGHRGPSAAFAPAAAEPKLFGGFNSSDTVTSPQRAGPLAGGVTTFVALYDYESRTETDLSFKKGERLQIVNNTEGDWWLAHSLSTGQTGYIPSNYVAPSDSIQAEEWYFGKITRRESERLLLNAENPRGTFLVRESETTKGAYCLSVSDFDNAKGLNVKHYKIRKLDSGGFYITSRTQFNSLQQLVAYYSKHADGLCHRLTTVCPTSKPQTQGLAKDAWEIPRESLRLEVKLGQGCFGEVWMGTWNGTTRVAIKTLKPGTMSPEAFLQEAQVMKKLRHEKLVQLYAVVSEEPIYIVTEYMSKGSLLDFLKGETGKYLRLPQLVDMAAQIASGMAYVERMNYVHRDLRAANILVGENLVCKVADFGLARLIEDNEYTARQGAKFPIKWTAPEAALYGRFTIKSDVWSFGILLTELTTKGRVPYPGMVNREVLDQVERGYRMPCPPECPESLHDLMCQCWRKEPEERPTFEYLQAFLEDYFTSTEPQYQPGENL

A549 = assay: Antiproliferative activity against human A549 cells by MTS based Cell Titer 96 viability assay; format: functional
Wee1-like protein kinase [4] = biological target: T2, Wee1-like protein kinase; assay: Inhibition of human full length N-terminal GST tagged Wee1 expressed in E coli
Wee1-like protein kinase [5] = biological target: T2, Wee1-like protein kinase; assay: Binding affinity to Wee1 (unknown origin) assessed as dissociation constant
MDA-MB-231 = assay: Antiproliferative activity against human MDA-MB-231 cells
Wee1-like protein kinase [6] = biological target: T2, Wee1-like protein kinase; assay: Inhibition of recombinant Wee1 (unknown origin) by TR-FRET assay

| SMILES | IC50 [3] [nM] | further results |
| --- | --- | --- |
| CCN(CC)CCOc1ccc(Nc2ncc3cc(-c4c(Cl)cccc4Cl)c(=O)n(C)c3n2)cc1 [PD-0166285] | – | IC50 [1]: 72 nM |
| C=CCn1c(=O)c2cnc(Nc3ccc(N4CCN(C(=O)OC)CC4)cc3)nc2n1-c1cccc(C(C)(C)O)n1 | – | IC50 (Wee1-like protein kinase [2]): 27.8 nM |
| Cn1c(=O)c(-c2c(Cl)cccc2Cl)cc2cnc(Nc3ccc(OCCCC(=O)O)cc3)nc21 | 4 | – |
| CCOC(=O)N1CCc2c(sc3nc(SCC(=O)c4ccccc4)n(N)c(=O)c23)C1 | – | IC50 (A549): 17800 nM; IC50 (Wee1-like protein kinase [4]): 22300 nM |
| CCN(CC)CCOc1ccc(Nc2ncc3cc(-c4c(C)cccc4C)c(=O)n(C)c3n2)cc1 | 23 | – |
| CC(=O)NCC(=O)N1[C@@H]2CC[C@H]1c1cc(Nc3ncc(C(F)(F)F)c(NC4CCC4)n3)ccc12 | – | Kd (Wee1-like protein kinase [5]): 78.7 nM |
| COc1cc(Nc2c(C#N)cnc3cc(OCCCN4CCN(C)CC4)c(OC)cc23)c(Cl)cc1Cl [BOSUTINIB] | – | IC50 (MDA-MB-231): 1800 nM |
| C=CCn1c(=O)c2cnc(Nc3ccc(CCN(C)C)cc3)nc2n1-c1cccc(C(C)(C)O)n1 | – | IC50 (Wee1-like protein kinase [6]): 1.7 nM |
| Cn1c(=O)c(-c2c(Cl)ccc(O)c2Cl)cc2cnc(Nc3ccc(OCCCC(=O)O)cc3)nc21 | 99 | – |
| Cc1cccc(C)c1-c1cc2cnc(Nc3ccccc3)nc2n(C)c1=O | 14 | – |

Further lines, with some results ahead:

| IC50 [3] [nM] | SMILES | further results |
| --- | --- | --- |
| 13 | Cn1c(=O)c(-c2c(Cl)cccc2Cl)cc2cnc(Nc3ccc(CC(N)=O)cc3)nc21 | – |
| 360 | CCN(CC)CCOc1ccc(Nc2ncc3c(C)c(-c4c(C)cccc4C)c(=O)n(C)c3n2)cc1 | – |
| > 50000 | CCN(CC)CCOc1ccc(Nc2ncc3c(C)c(-c4ccccc4Cl)c(=O)n(C)c3n2)cc1 | – |
